Test: gradient 5% acetonitrile 3 min, to 50% in 2 min, to 85% in 15 min, held 3 min, 100 µL/min
Settings: column: Zorbax Extend-C18 2.1 x 50 mm; eluents: water / acetonitrile, 0.1% formic acid
Summary of the method: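 Mixtures of ~100 pure standards were chromatographed on a Zorbax Extend-C18 column (2.1 × 50 mm, 1.8 μm) at 100 μL/min using water and acetonitrile, each with 0.1% formic acid. Detection used a quadrupole time-of-flight mass spectrometer in positive and negative ionization mode, and data collection spanned 3 months. Retention time was obtained from adduct peaks picked computationally and each checked manually.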

Compound	RP-LC retention time [s]
O=C(NCc1ccc2c(c1)CCCN2C(=O)C1CC1)c1ccc(Br)o1	840
CC(C)N1C(=O)C(C)(C(=O)NCc2cccc(Br)c2)Oc2cccnc21 (centres undefined)	1030
Cc1nnc(-c2ccc3ccn(CC(=O)N4CCC5(CC4)OCCO5)c3c2)o1	673
CN(C)c1cc(N2CCCC(NC(=O)Cc3cccs3)C2)ncn1 (centres undefined)	596
O=C(NCc1ccc(F)cc1F)C1CCN(c2ncnc3c2oc2ccccc23)CC1	761
Cc1c(-c2ccccc2)nc2ccc(Br)cc2c1C(=O)O	698
COc1ccc(NC(=O)C2CCN(S(C)(=O)=O)c3cc(C)ccc3O2)cc1 (centres undefined)	872
COc1ccc(-c2nnc(-c3cc(S(=O)(=O)N4CCN(C)CC4)ccc3Cl)o2)cc1	682
COc1cccc(-c2ccc(=O)n(CCc3nc(-c4cccc(Br)c4)no3)n2)c1	1080
Cc1ccc(C)c(NC(=O)c2cc(C)n3nccc3n2)c1	1030
COc1ccccc1NC(=O)N1CCCC1c1nc(-c2ccccc2OC)no1 (centres undefined)	894
COc1ccc(NC(=O)NCC23CCCC=C2NC(=O)CC3)cc1 (centres undefined)	593
CCCN1CCN(C(=O)CC(C)S(=O)(=O)c2ccc3c(c2)CCN3C(C)=O)CC1 (centres undefined)	586
O=C(COc1ccc(Cl)cc1)NCc1nnc(SCC(=O)Nc2nccs2)o1	703
COc1ccc(NC(=O)Cn2c(=O)n(-c3ccc(F)cc3)c(=O)c3c2cc(C)n3C)cc1	812
CCn1nccc1C(=O)N1C[C@@H]2C[C@H](NC(=O)c3ccccc3)[C@H]1C2	673
Cc1ccc(C(=O)CSc2ccc(NC(=O)C(C)C)nn2)c(C)c1	890
Oc1ccc2c3c1O[C@H]1[C@@H](O)CC[C@@]4(O)C(C2)N(CC2CCC2)CCC314 (some centres undefined)	635
CC(C)C(=O)Nc1ccc(C2(C(=O)Nc3ccc(N4CCOCC4)cc3)CCCCC2)cc1	888
CCn1ccc(C(=O)NC2CCCC2)n1	709
Cc1ccc(C)c(N2CCN(c3ccncc3N)CC2)c1	777
Cc1ccc2c(=O)c3c([nH]c2c1C)CCN(CC(=O)NC1CCCCC1)C3	619
O=c1n(Cc2ccccc2)nc2ccc(S(=O)(=O)N3CCCC3)cn12	675
COc1cc(-c2nnc(SCC(=O)N3CCCCC3C)o2)cc(OC)c1OC (centres undefined)	867

Compound	RP-LC retention time [s]
COc1ccccc1-c1nc(Cn2nnc(-c3nc(-c4ccc(Cl)c(F)c4)no3)c2C)c(C)o1	1240
COCCCNC(=O)C1CCN(c2nc3ccc(-c4ccccc4)nc3s2)CC1	835
Cc1cc(C(=O)N2CCC(c3noc(-c4cnccn4)n3)C2)nn1C (centres undefined)	641
COc1ccc2cccc(NC(=O)c3csc(C)n3)c2n1	1120
Cc1cc(OCC(=O)N[C@H](C(=O)O)c2ccccc2)c2c3c(c(=O)oc2c1)CCCC3	879
COc1ccc2c(c1)C1(CCN(C(=O)COc3ccccc3)C1)C(=O)N2C (centres undefined)	791
Cc1ccc(S(=O)(=O)N2CCOCC2)cc1[N+](=O)[O-]	751
Cn1cc2c(N3CCSCC3)nc(C(=O)N3CCN(C4CCCC4)CC3)nc2n1	579
COc1cc(OC)c(NC(=O)C2=C(C)C(=O)OC23CCN(C(C)C)CC3)cc1Cl	654
CCNc1nccc(N2CCC(CC(=O)NCc3ccc(OC)c(OC)c3)CC2)n1	614
Cn1nc2n(c1=O)CCN(S(=O)(=O)c1cccc3cccnc13)CC2	649
CCCc1nnsc1C(=O)NCC1CCN(C(=O)Oc2ccccc2)CC1	863
CCc1cccc(-n2nnc(C(=O)O)c2CC)c1	788
Cc1ccc(N2CC(C(=O)NC(C)C)CC2=O)cc1 (centres undefined)	712
CCc1ccc(NC(=O)Cn2c(=O)c(CCC(=O)NCC(C)C)nc3ccccc32)cc1	878
CCCN1C(=O)c2cc(S(=O)(=O)Nc3cc(F)ccc3C)ccc2Oc2cccnc21	1120
O=C(Nc1cccc(Br)c1)c1cnc(-c2ccccc2)nc1-c1ccncc1	990
Cc1ccc(S(=O)(=O)N2CCn3c(nn(CC4CC4)c3=O)C2)c(C)c1	809
CCOC(=O)c1[nH]c(C)c(CCC(=O)N2CCC(C(=O)N3CCCCC3)CC2)c1C	737
COC(=O)C1=C(C)N(C2CCCC2)C(=O)C1(NC(=O)c1cccc(OC)c1)C(F)(F)F (centres undefined)	1010
CCOC(=O)c1cnc2nc(C)ccc2c1Nc1cc(OC)c(OC)c(OC)c1	671
CCOc1cc(=O)n2c(c1C(=O)N1CCC3(CC1)OCCO3)CCCCC2	639
CN(C)c1cnc(-n2cc(NC(=O)c3cccc(N(C)C)c3)cn2)nc1	672
CC(NC(=O)COc1ccc(NC(=O)C2CC2)cn1)c1ccccc1 (centres undefined)	744

Now from value to compound:

RP-LC retention time [s]	Compound
1230	O=C(c1ccc2c(c1)N(Cc1ccccc1)C(=O)CO2)N1CCN(c2ccccn2)CC1
785	O=S(=O)(CCCOc1ccc(F)cc1)NC1CC1
880	Cc1ccc(NC(=O)Cn2c(=O)n(-c3ccc(F)cc3)c3ncccc32)cc1
1060	CCOc1ccc(S(=O)(=O)N2CCC(C(=O)Nc3ccc(Br)cc3F)CC2)cc1
858	Cc1ccc(NC(=O)NCCc2cn(CC(C)C)c3ncccc23)cc1C
634	c1ccc(-n2nnnc2SCCNCc2ccc3c(c2)OCCO3)cc1
746	COC[C@@H]1CN(S(=O)(=O)c2ccc(C#N)cc2)C[C@H]1c1ccccn1
866	COc1ccccc1-c1noc(C2CCCN2C(=O)Cc2ccc(F)cc2)n1 (centres undefined)
676	Cn1c(C2CCN(C(=O)Nc3ccc(Cl)cc3)CC2)cc(=O)n2nccc12
926	CCOc1cc(=O)n2c(c1C(=O)OCc1cccc(C)c1)CCCC2
711	O=C([C@H]1C[C@@H](F)CN1S(=O)(=O)c1ccc(Cl)cc1)N1CCOCC1
1120	N#Cc1ccccc1NC(=O)CSc1cc(N2CCN(c3ccccc3F)CC2)ncn1
655	CC1CCN(C2=NCCN2C(=O)c2ccccc2Cl)CC1
576	CCCN1CCN(C(=O)CC2Sc3ncccc3N(C)C2=O)CC1 (centres undefined)
909	O=c1c2oc3ccccc3c2ncn1Cc1nc(-c2ccc3c(c2)OCO3)no1
750	Cc1ccccc1C1CC(=O)c2cnc(N3CCC(C(N)=O)CC3)nc2C1 (centres undefined)
773	Cc1nc(-c2cccs2)c(CCC(=O)NC2CCCC2)s1
892	Cc1cc2[nH]c(C(=O)Nc3cc(Cl)ccc3F)c(CN3CCOCC3)c2s1
925	Cc1ccc2[nH]cc(CCN3CC(C(=O)Nc4ccc5c(c4)CCC5)CC3=O)c2c1 (centres undefined)
999	COc1ccc(-c2nc(-c3cn(-c4cccc(F)c4)nn3)no2)c(OC)c1
884	COc1cccc(NS(=O)(=O)c2ccc(-c3c(C)noc3C)cc2)c1

RP-LC retention time [s]	Compound
612	Cc1c(C(=O)NCCCN2CCOCC2)oc2ccc3c(c12)C(O)CC(C)(C)O3 (centres undefined)
836	O=C(c1ccc2c(c1)OCO2)N1CCN(c2cc(-c3ccc(Cl)cc3)[nH]n2)CC1
843	COc1ccc(NC(=O)c2nc(C)oc2C)cc1F
960	Cc1cccc(NS(=O)(=O)c2cn(CC(C)C)c3ncccc23)c1
966	Cc1ccc(-c2cn3c(CC(=O)Nc4ccc(Cl)cc4F)csc3n2)cc1C
590	COc1ccc2c(c1)c(CN1CCC(C(=O)NCCN(C)Cc3ccccc3)CC1)cn2C
773	O=C(Nc1ccc2c(c1)C(=O)Nc1ccccc1O2)c1ccc2nsnc2c1
616	CCC1CN(C(=O)N2CCC(C(=O)NCCN3CCN(CC)CC3)CC2)c2cc(C)ccc2O1 (centres undefined)
579	CCOC(=O)C1=C(CN2CCCCC2)NC(=O)NC1c1ccco1 (centres undefined)
786	Cc1cc2nc(CSc3nnc(-c4ccc(Cl)cc4)o3)cc(=O)n2o1
985	Cc1ccc(NC(=O)Cn2nc3cc(-c4ccccc4)nc(C)n3c2=O)c(C)c1
1040	COc1cc(NC(=O)C2CCN(c3nccnc3Sc3ccccc3)CC2)cc(OC)c1
744	Nc1cc(C2CCN(C(=O)Nc3cccc(Br)c3)CC2)no1
579	Cn1cnc(C(=O)N2CC(c3nc(CCOCC4CCOCC4)no3)C2)c1
677	C[C@@H]1O[C@@H](O[C@H]2C(Oc3cc(O)c4c(=O)c(O)c(-c5ccc(O)cc5)oc4c3)O[C@H](CO)[C@@H](O)[C@@H]2O)[C@H](O)[C@H](O)[C@H]1O (some centres undefined)
1160	COc1nc2ccccc2nc1N1CCCC(C(=O)NC2CCCC(C)C2C)C1 (centres undefined)
623	CCOc1ccc(S(=O)(=O)N2CCCC(C(=O)NCc3ccccn3)C2)cc1 (centres undefined)
1070	COC(=O)C1=C(C)N(C2CCCC2)C(=O)C1(NC(=O)c1ccccc1OC)C(F)(F)F (centres undefined)
1110	CCC(=O)N1CCN(c2nc(CC(C)C)c3c(c2C#N)CC(C)(C)OC3)CC1
758	COC(=O)Cn1c(C2CC(=O)N(c3cc(Cl)ccc3OC)C2)nc2ccccc21 (centres undefined)

Reference: the METLIN SMRT retention time set (Domingo-Almenara et al. 2019)
